Like-named read-outs stand apart in the source and are kept apart here.
Tests used:
[1] = test system: ischemic myocardium; assay: Inosine levels in venous blood of dogs during coronary artery occlusion; type: in vivo, dog; settings: over the 60-minute assay period, vs saline
Text: Thirteen mongrel dogs were anesthetized with phenobarbital. […] C.V. Dis. 20; 55 (1977). […] Two of the surviving saline-treated animals fibrillated. […] That the increase in the levels of adenosine is due, at least in part, to a reduction in the amount of ATP that is converted to inosine was shown by analysis of venous blood from dogs in Example III for inosine levels.

[2] = Phase 2 CABG trial: plasma AICA riboside concentrations and clearance; type: in vivo; settings: human, intravenous, low and high doses, pre- and post-bypass, read-out: total plasma clearance (CLp) (converted)
Description: 10. Plasma Levels. […] Individual values and group means were tabulated and drug clearance calculated. Dose proportionality was assessed.
The data are also presented graphically in FIG. 18.

[3] = test system: ischemic rat hearts; assay: Rat heart ischemia model: tissue adenosine levels; type: in vivo; settings: intraperitoneal; hearts excised after 60 minutes, incubated 60 minutes at 37° C.
Description: Male rats were injected intraperitonealy with either the AICA riboside analog, AICA riboside or saline, as a control. After 60 minutes, the hearts were excised and incubated at 37° C. for a further 60 minutes. Tissue extracts were prepared and analyzed for adenosine by high performance liquid chromatography (HPLC).

[4] = test system: patients undergoing CABG surgery; type: in vivo
Description: All patients from all clinical trials were included: a total of 4043 patients undergoing CABG surgery, evaluable for efficacy, and randomized to receive either placebo (n=2031) or acadesine (0.1 mg-kg^−1-min^−1; n=2012) by intravenous infusion for 7 continuous hours and via the cardioplegia solution.
Individual patient data were collected prospectively using standardized forms and methods and double-data entry. A general parametric approach and analysis-by-patient meta-analysis were used, including both fixed effects and random effects models. Inclusion and exclusion criteria, general methodology, and outcome assessment techniques were similar for all trials.
Meta-analysis included all patients undergoing CABG surgery in the United States, Canada, and Europe who had received acadesine at a dose of 0.1 mg-kg^1min^1. No patients satisfying these criteria were excluded. All 5 studies were randomized, placebo controlled, double blinded, and performed with approval from the 81 participating McSPI institutions and with patient informed consent. Inclusion and exclusion criteria, general methods, and outcome assessment techniques were similar for all trials; with several exceptions (Table 1). […] For all patients, blinded study drug (acadesine or placebo) was administered intravenously, starting approximately 15 minutes before induction of anesthesia and continuing for a total of 7 hours to include the intraoperative (prebypass and postbypass) and immunediate postoperative (into the intensive care unit) periods.
Prior to surgery, investigators ascertained cardiac history and recorded cardiac catheterization information. The use of agents potentially affecting endogenous adenosine concentration (which could complicate the analysis of efficacy) was restricted, including dipyridamole, theophylline, adenosine, and pentoxifylline. All chronic cardiovascular medications, including nitrates, β-blockers, and calcium channel blockers, were continued until the time of surgery. During surgery, but prior to bypass, the usual monitors wore applied, anesthetic techniques were standardized, and hemodynamic variables (blood pressure, heart rate) were to be maintained within specific boundaries for trials 1013, 1016, and 1023; for trials […], guidelines for anesthetic use and hemodynamic control were recommended. For all studies, prophylactic use of cardiovascular agents having potential anti-ischemic properties (nitrates, calcium channel Mockers) was specifically excluded to avoid confounding data interpretation. During cardiopulmonary bypass, neither the surgical technique nor bypass procedures (including cardioplegia administration) were controlled for the phase 3 trials, and bypass typically was conducted using a membrane oxygenator and arterial filter with hemodilution and moderate systemic hypothermia. Following bypass, the use of inotropic and vasodilating agents (excluding the prophylactic use of anti-ischemic medications) and treatment of clinically detected ischemia were not controlled; all medications administered were recorded.
For all studies, the primary outcome, MI, and other secondary outcomes were ascertained and validated by IREF Coordinating Center investigators who were blinded to patient identity and group assignment. Secondary outcomes included cardiac death, stroke, life-threatening dysrhythmia, and severe heart failure (Table 1). For MI, repeated electrocardiograms (ECGs) were coded centrally by core investigators using Minnesota Code criteria. Creatine kinase-MB (CK-M13) concentrations were sampled approximately 18 times during the first 4 postoperative days and, for phase 3 studies, were analyzed centrally using an immunoenzymetric assay (Hybritech Tandem-E CK-MB II, SmithKline Beecham, Van Nuys, Calif.). The presence of infarction at autopsy was based on pathologic data from the respective institution and confirmed centrally by the Endpoint Committee.

[5] = test system: patients undergoing CABG surgery
[6] = death following myocardial infarction, acadesine vs placebo (n = 98)
[7] = patients with myocardial infarction, Acadesine (n = 71)
[8] = patients with myocardial infarction, Acadesine (n = 71), number of patients
[9] = plasma level 3.00–4.00 μg/ml, n = 44
[10] = plasma level 4.00–5.00 μg/ml, n = 61

Which inosine levels [1] does the source give for `NC(=O)c1ncn([C@@H]2O[C@H](CO)[C@@H](O)[C@H]2O)c1N` [1 (1-110), 5-amino-1-β-D-ribofuranosyl-imidazole-4-carboxamide] here?
The inosine levels was “more than twofold decrease”.

And the clearance [2]?
The clearance was about 20 mL/min/kg.

What about the “Tissue Adenosine Levels (% Increase vs. Saline)” value [3] of the same compound?
The value was 30%.

And the “decrease of the incidence of perioperative myocardial infarction” value ([4]; 0.1 mg/kg/min for 7 hours vs placebo)?
The value was 27%.

What about the “cardiac death following MI through postoperative day 4” value ([4]; acadesine group (1 death/71 MIs), placebo 13.3%) of the same compound?
The value was 1.4%.

And the “incidence of CVA” value ([4]; acadesine group (32/2012), placebo 2.3%)?
Its value is 1.6%.

And the “fewer patients with an adverse outcome” value ([4]; acadesine group vs placebo, combined outcomes)?
Its value is 41.

And the incidence of infarction ([4]; acadesine group, placebo 4.9%)?
The incidence of infarction was 3.6%.

And the “cardiac deaths through postoperative day 4, number” value ([4]; acadesine group, placebo 26)?
The value was 13.

What about the “Cardiac death at 28 days, patients” value ([4]; acadesine group, placebo 34) of the same compound?
The value was 20.

What about the “patients with myocardial infarction, number” value ([4]; acadesine group, placebo 98) of the same compound?
The value was 71.

And the “autopsy-defined MI” value ([4]; acadesine patients, placebo 16/19)?
The value was 2/11.

And the “decrease of cardiac death following MI through postoperative day 4” value ([4]; acadesine vs placebo)?
The value was 89%.

And the “decrease of the incidence of cardiac death through postoperative day 4” value ([4]; acadesine vs placebo)?
The value was 50%.

And the “decrease of the incidence of combined outcome (MI, stroke, or cardiac death)” value ([4]; acadesine vs placebo)?
The value was 26%.

What about the noncardiac death ([4]; acadesine vs placebo) of the same compound?
Its noncardiac death is “no effect”.

What about the “reduction of the use of ventricular-assistance devices for severe postoperative heart failure” value ([4]; acadesine vs placebo) of the same compound?
Its value is “approximately one third”.

What about the post-MI deaths ([4]; acadesine-treated patients, placebo 21/98) of the same compound?
Its post-MI deaths is 4/71.

What about the “cardiac death in the first 4 days in patients without MI or not evaluable for MI” value ([4]; acadesine-treated, placebo 0.7%) of the same compound?
Its value is 0.6%.

And the “Cardiac death by postoperative day 4, Reduction” value [4, 6]?
Its value is 89%.

And the “Cardiac death by postoperative day 28, Reduction” value [4, 6]?
The value was 79%.

And the “Death by postoperative day 4, Reduction” value [4, 6]?
Its value is 79%.

And the “Death by postoperative day 28, Reduction” value [4, 6]?
Its value is 74%.

And the “cardiac failure, immediately life-threatening or prolonging hospitalization” value ([4]; human, in vivo, 7 h)?
Its value is 2.1%.

What about the “incidence of serious adverse events” value ([4]; human, in vivo, 7 h) of the same compound?
Its value is 9.1%.

What about the “use of an intraaortic balloon pump” value ([4]; in vivo) of the same compound?
Its value is 2.4%.

And the “Cardiac death by postoperative day 4, (%)” value [4, 7]?
Its value is 1 (1) %.

What about the “Cardiac death by postoperative day 28, (%)” value [4, 7] of the same compound?
The value was 4%.

What about the “Death by postoperative day 4, (%)” value [4, 7] of the same compound?
Its value is 3%.

And the “Death by postoperative day 28, (%)” value [4, 7]?
The value was 6%.

And the “Cardiac death by postoperative day 4, No.” value [4, 8]?
Its value is 1 (1).

What about the “Cardiac death by postoperative day 28, No.” value [4, 8] of the same compound?
Its value is 3.

What about the “Death by postoperative day 4, No.” value [4, 8] of the same compound?
The value was 2.

What about the “Death by postoperative day 28, No.” value [4, 8] of the same compound?
Its value is 4.

What about the “reduction in post-MI death” value ([4]; secondary analysis, acadesine vs placebo) of the same compound?
The value was 74%.

And the “effect size for MI” value ([4]; trial 1016 (n=414))?
The value was 73%.

What about the rate of stroke ([4]; trial 1016, placebo 4.2%) of the same compound?
Its rate of stroke is 0.5%.

And the “combined adverse cardiovascular outcome (MI, CVA or cardiac death)” value ([4]; trial 1016, placebo […])?
Its value is 1.9%.

What about the “infarction rate (Q wave and CK-MB or autopsy)” value ([4]; trial 1016, placebo […]) of the same compound?
Its value is 1.5%.

What about the “effect size for MI” value ([4]; trial 1017 (n=821)) of the same compound?
The value was 23%.

And the “effect size for MI” value ([4]; trial 1024 (n=2698))?
The value was 22%.

And the “Cardiac Death, incidence” value ([5]; Low Dose, n = 214)?
Its value is 5 (2.3%).

What about the “Cerebrovascular Accident, incidence” value ([5]; Low Dose, n = 214) of the same compound?
The value was 2 (0.9%).

And the “Combined Clinical Outcomes, incidence” value ([5]; Low Dose, n = 214)?
The value was 23 (10.7%).

And the “Congestive Heart Failure, incidence” value ([5]; Low Dose, n = 214)?
The value was 6 (2.8%).

And the “Life-Threatening Dysrhythmia, incidence” value ([5]; Low Dose, n = 214)?
The value was 9 (4.2%).

And the “decrease in incidence of MI” value ([5]; high dose vs placebo)?
The value was 68%.

And the “decrease in incidence of cerebrovascular accident” value ([5]; high dose vs placebo)?
The value was 88%.

And the “reduction in the incidence of combined outcomes” value ([5]; high dose vs placebo)?
The value was 61%.

And the “incidence of myocardial infarction by either ECG or CK-MB” value ([5]; high dose, placebo 24.1%)?
The value was 20.8%.

And the “Myocardial Infarction MI, incidence” value ([5]; plasma level 0.25–2.00 μg/ml, n = 83)?
The value was 2 (2.4%).

What about the “Combined Clinical Outcome, incidence” value ([5]; plasma level 0.25–2.00 μg/ml, n = 89) of the same compound?
The value was 9 (10.1%).

And the “Myocardial Infarction MI, incidence” value ([5]; plasma level 2.00–3.00 μg/ml, n = 114)?
The value was 5 (4.4%).

What about the “Combined Clinical Outcome, incidence” value ([5]; plasma level 2.00–3.00 μg/ml, n = 116) of the same compound?
The value was 11 (9.5%).

And the “Combined Clinical Outcome, incidence” value [5, 9]?
The value was 3 (6.8%).

And the “Myocardial Infarction MI, incidence” value [5, 9]?
Its value is 1 (2.3%).

And the “Combined Clinical Outcome, incidence” value [5, 10]?
The value was 2 (3.3%).

And the “Myocardial Infarction MI, incidence” value [5, 10]?
Its value is 0.

What about the “Myocardial Infarction MI, incidence” value ([5]; plasma level 5.00–6.00 μg/ml, n = 49) of the same compound?
The value was 2 (4.1%).

And the “Combined Clinical Outcome, incidence” value ([5]; plasma level 5.00–6.00 μg/ml, n = 50)?
Its value is 3 (6.0%).

What about the “Myocardial Infarction MI, incidence” value ([5]; plasma level <0.25 μg/ml, n = 209) of the same compound?
The value was 9 (4.3%).

And the “Combined Clinical Outcome, incidence” value ([5]; plasma level <0.25 μg/ml, n = 211)?
The value was 29 (13.7%).

And the “Myocardial Infarction MI, incidence” value ([5]; plasma level >6.00 μg/ml, n = 44)?
The value was 1 (2.3%).

What about the “Combined Clinical Outcome, incidence” value ([5]; plasma level >6.00 μg/ml, n = 46) of the same compound?
The value was 4 (8.7%).

— patent US8993527B2, “Methods, compositions, and formulations for preventing or reducing adverse effects in a patient” (Pericor Therapeutics, Inc., priority 2005, dated 2015)
